Reference: BindingDB's records for doi:10.1016/j.ejmech.2010.09.016 (Democritus University of Thrace, 2010)

Biological target: Seed linoleate 13S-lipoxygenase-1 (Glycine max) (UniProt P08170)
Experiment: Inhibition of soybean lipoxygenase at by UV spectrophotometry

Chain of Seed linoleate 13S-lipoxygenase-1 (Glycine max) (P08170 whole entry, looked up): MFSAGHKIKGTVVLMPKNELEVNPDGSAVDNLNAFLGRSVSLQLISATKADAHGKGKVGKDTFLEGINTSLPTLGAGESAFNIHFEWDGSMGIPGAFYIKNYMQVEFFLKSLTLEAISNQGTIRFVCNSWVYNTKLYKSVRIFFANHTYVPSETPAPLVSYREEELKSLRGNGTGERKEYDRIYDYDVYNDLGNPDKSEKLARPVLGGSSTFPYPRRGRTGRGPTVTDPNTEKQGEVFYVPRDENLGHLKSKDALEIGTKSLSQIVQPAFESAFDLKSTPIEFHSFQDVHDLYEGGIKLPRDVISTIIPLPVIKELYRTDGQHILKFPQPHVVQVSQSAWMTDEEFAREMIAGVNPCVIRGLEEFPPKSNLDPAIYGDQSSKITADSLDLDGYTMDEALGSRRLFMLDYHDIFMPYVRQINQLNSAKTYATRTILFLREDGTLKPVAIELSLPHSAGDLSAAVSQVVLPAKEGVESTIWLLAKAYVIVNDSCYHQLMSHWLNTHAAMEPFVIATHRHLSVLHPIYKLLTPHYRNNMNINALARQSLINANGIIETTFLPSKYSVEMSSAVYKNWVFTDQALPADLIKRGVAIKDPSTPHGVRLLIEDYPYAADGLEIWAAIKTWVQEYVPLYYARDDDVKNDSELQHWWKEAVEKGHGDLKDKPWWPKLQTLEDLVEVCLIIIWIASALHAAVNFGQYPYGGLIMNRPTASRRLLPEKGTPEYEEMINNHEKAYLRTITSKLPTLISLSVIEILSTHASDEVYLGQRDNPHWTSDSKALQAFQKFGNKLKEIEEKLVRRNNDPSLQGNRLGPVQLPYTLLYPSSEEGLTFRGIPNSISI

`Clc1ccc(Cc2noc(NC3CCCCC3)n2)cc1` [3-(4-Chlorobenzyl)-N-cyclohexyl-1,2,4-oxadiazol-5-amine] was tested, and the IC50 was 25 µM.
With `CC(C)Nc1nc(Cc2ccc(Cl)cc2)no1` [3-(4-Chlorobenzyl)-N-isopropyl-1,2,4-oxadiazol-5-amine] the IC50 was 100 µM.
`CC(C)Nc1nc(C2CCCCC2)no1` [3-Cyclohexyl-N-isopropyl-1,2,4-oxadiazol-5-amine] gave an IC50 of 100 µM.
Work on `Cc1ccc(-c2noc(NCCCN(C)C)n2)cc1` [N1,N1-Dimethyl-N3-(3-p-tolyl-1,2,4-oxadiazol-5-yl)propane-1,3-diamine] yielded an IC50 of 25 µM.
Compound `COc1ccc(C(=N)NO)cc1` [N'-hydroxy-4-methoxybenzimidamide] has an IC50 of 55 µM.
`Cc1ccc(C(=N)NO)cc1` [N'-hydroxy-4-methylbenzimidamide] was tested, and the IC50 was 100 µM.
`O=[N+]([O-])c1ccc(Cc2noc(NC3CCCCC3)n2)cc1` [N-Cyclohexyl-3-(4-nitrobenzyl)-1,2,4-oxadiazol-5-amine] showed an IC50 of 100 µM.
With `Cc1ccc(-c2noc(NC3CCCCC3)n2)cc1` [N-Cyclohexyl-3-p-tolyl-1,2,4-oxadiazol-5-amine] the IC50 was 92 µM.
Work on `CC(=O)N(c1nc(-c2ccc([N+](=O)[O-])cc2)no1)C1CCCCC1` [N-Cyclohexyl-N-[3-(4-nitrophenyl)-1,2,4-oxadiazol-5-yl]acetamide] yielded an IC50 of 50 µM.
In the case of `CC(=O)N(c1nc(-c2cccc([N+](=O)[O-])c2)no1)C(C)C` [N-Isopropyl-N-[3-(3-nitrophenyl)-1,2,4-oxadiazol-5-yl]acetamide], the IC50 is reported as 58.5 µM.
For `CC(=O)N(c1nc(Cc2ccc(Cl)cc2)no1)C1CCCCC1` [N-[3-(4-Chlorobenzyl)-1,2,4-oxadiazol-5-yl]-N-cyclohexylacetamide], the IC50 was 100 µM.
